# Where two headings read alike, the source gives them in different places.
# How the values were obtained:
# Assay type in all cases: cell-based
# [1] = system: MSSA (ATCC 25923); experiment: Broth microdilution MIC, MSSA ATCC 25923; conditions: Staphylococcus aureus
# [2] = system: S. aureus 29213; experiment: Broth microdilution MIC, S. aureus 29213; conditions: Staphylococcus aureus
# [3] = system: MRSA (ATCC 33591); experiment: Broth microdilution MIC, MRSA ATCC 33591; conditions: Staphylococcus aureus; Tables 2-4; standardized conditions
# Protocol: General information—Biological Assays. Methicillin-resistant and methicillin sensitive Staphylococcus aureus (MRSA and MSSA respectively) strains were obtained from the Laboratory of Professor Christian Melander (NCSU) (ATCC BAA 44 and 33591) and Dr. Jessica Gilbertie (ATCC 25923). Bacteria were kept in frozen stocks on glycerol at −80° C. until use. Bacteria was streaked onto tryptic-soy agar for colony isolation. Mueller-Hinton broth (MHB, 211443-BD), tryptic soy broth (TSB, Remel: R455052) and D-glucose (CAS: 492-62-6) were purchased from Fisher Scientific. Tryptic soy agar (TSA, cat. #22091) and Linezolid (cat. #P70014) were purchased from Sigma-Aldrich. Bacteria for biofilm inhibition were cultured overnight in TSB-G (tryptic soy broth with 0.5% glucose supplement) in 96 well plates. All assays were run in duplicate and repeated at least two separate times for MIC assays and at least three separate times for biofilm inhibition. All compounds were dissolved in molecular biology grade DMSO as 10 mM stock solutions. Optical densities were measured using a Thermo Scientific Genesys 20 spectrophotometer. Data for biofilm inhibition were collected using a BioTek ELx808 Microplate Reader. All graphs were generated and analyzed using GraphPad Prism 7.
# Broth microdilution method for determination of minimum inhibitory concentrations. As prescribed by the Clinical and Laboratory Standards Institute (CLSI) M07-A8, Vol. 29 (2) MSSA (ATCC 25923) and MRSA (ATCC BAA 44 and 33591) was grown in MHB for 6-8 h; this culture was used to inoculate fresh MHB (5×10^5 CFU/mL). The resulting bacterial suspension was aliquoted (1 mL) into 1.5 mL Eppendorf tubes and compound was added from a 10 mM DMSO stock to achieve the desired initial starting concentration (typically 128 μg/mL). Linezolid (from a 10 mM DMSO stock) was used as a positive control. Inoculated media not treated with compound served as the negative control. The MIC was determined by microbroth dilution following the CLSI guidelines. The MIC was defined as the lowest concentration of antibiotic with no visible growth. The plate was sealed and incubated under stationary conditions at 37° C.
# The antimicrobial activity of Compounds 1-15 was assessed initially against MSSA (ATCC 25923) and MRSA (ATCC 33591) strains. It was observed that almost all these compounds precipitated in aqueous solution at concentrations equal or higher than 8-16 μg/mL. In order to obtain preliminary results on the antimicrobial activity for these compounds, the standard conditions of the antimicrobial assays used where modified to favor the water solubility of these compounds.
# [4] = Table 2, standardized conditions, read-out: MIC (S. aureus 25913)
# [5] = Tables 2-4, standardized conditions, read-out: MIC (S. aureus 25923)
# [6] = Tables 3-4, standardized conditions, read-out: MIC (S. aureus 29213)
SMILES,"MIC ([1]; antibiotic alone, read-out: MIC value against MSSA ATCC 25923)","MIC [2, 4]","MIC [1, 5]",MIC [3],"MIC [2, 6]"
"O=C(O)c1cn(C2CC2)c2cc(N3CCNCC3)c(F)cc2c1=O [Ciprofloxacin, ciprofloxacin, reference compound]",0.5 µg/mL,,,,
"CCC1C(c2ccc(C(F)(F)F)cc2)=C(O)C(=O)N1CCN (centres unmarked) [Compound 16, 1-(2-Aminoethyl)-5-ethyl-3-hydroxy-4-(4-(trifluoromethyl)phenyl)-1,5-dihydro-2H-pyrrol-2-one]",,128 µg/mL,128 µg/mL,> 128 µg/mL,
"CCC1C(c2ccc(C(F)(F)F)cc2)=C(O)C(=O)N1CCCCN (centres unmarked) [Compound 17, 1-(4-Aminobutyl)-5-ethyl-3-hydroxy-4-(4-(trifluoromethyl)phenyl)-1,5-dihydro-2H-pyrrol-2-one]",,> 128 µg/mL,> 128 µg/mL,> 128 µg/mL,
"CCC1C(c2ccc(C(F)(F)F)cc2)=C(O)C(=O)N1CCCCCCN (centres unmarked) [Compound 18, 1-(6-Aminohexyl)-5-ethyl-3-hydroxy-4-(4-(trifluoromethyl)phenyl)-1,5-dihydro-2H-pyrrol-2-one]",,> 128 µg/mL,> 128 µg/mL,> 128 µg/mL,
"CCC1C(c2ccc(C(F)(F)F)cc2)=C(O)C(=O)N1C1CCC(N)CC1 (centres unmarked) [Compound 19, 1-((1r,4r)-4-Aminocyclohexyl)-5-ethyl-3-hydroxy-4-(4-(trifluoromethyl)phenyl)-1,5-dihydro-2H-pyrrol-2-one]",,128 µg/mL,64 µg/mL,128 µg/mL,
"CCC1C(c2ccc(C(F)(F)F)cc2)=C(O)C(=O)N1c1ccc(N)cc1 (centres unmarked) [Compound 20, 1-(4-Aminophenyl)-5-ethyl-3-hydroxy-4-(4-(trifluoromethyl)phenyl)-1,5-dihydro-2H-pyrrol-2-one]",,> 128 µg/mL,> 128 µg/mL,64 µg/mL,
"CCC1C(c2ccc(C(F)(F)F)cc2)=C(O)C(=O)N1CCOCCN (centres unmarked) [Compound 21, 1-(2-(2-Aminoethoxy)ethyl)-5-ethyl-3-hydroxy-4-(4-(trifluoromethyl)phenyl)-1,5-dihydro-2H-pyrrol-2-one]",,> 128 µg/mL,> 128 µg/mL,> 128 µg/mL,
"CCC1C(c2ccc(C(F)(F)F)cc2)=C(O)C(=O)N1CCOCCOCCOCCN (centres unmarked) [Compound 22, 1-(2-(2-(2-(2-Aminoethoxy)ethoxy)ethoxy)ethyl)-5-ethyl-3-hydroxy-4-(4-(trifluoromethyl)phenyl)-1,5-dihydro-2H-pyrrol-2-one]",,> 128 µg/mL,> 128 µg/mL,> 128 µg/mL,
"CCC1C(c2ccc(C(F)(F)F)cc2)=C(O)C(=O)N1CCCNCCCCN (centres unmarked) [Compound 23, 1-(3-((4-Aminobutyl)amino)propyl)-5-ethyl-3-hydroxy-4-(4-(trifluoromethyl)phenyl)-1,5-dihydro-2H-pyrrol-2-one]",,64 µg/mL,16 µg/mL,32 to 64 µg/mL,
"CCC1C(c2ccc(C(F)(F)F)cc2)=C(O)C(=O)N1CCCNCCCCNCCCN (centres unmarked) [Compound 24, 1-(3-((4-((3-Aminopropyl)amino)butyl)amino)propyl)-5-ethyl-3-hydroxy-4-(4-(trifluoromethyl)phenyl)-1,5-dihydro-2H-pyrrol-2-one]",,16 µg/mL,8 µg/mL,16 µg/mL,
"CCC1C(c2ccc(C(F)(F)F)cc2)=C(O)C(=O)N1CCN1C(=O)C(O)=C(c2ccc(C(F)(F)F)cc2)C1CC (centres unmarked) [Compound 25, 1,1′-(Ethane-1,2-diyl)bis(5-ethyl-3-hydroxy-4-(4-(trifluoromethyl)phenyl)-1,5-dihydro-2H-pyrrol-2-one)]",,> 128 µg/mL,> 128 µg/mL,> 128 µg/mL,
"CCC1C(c2ccc(C(F)(F)F)cc2)=C(O)C(=O)N1CCCCN1C(=O)C(O)=C(c2ccc(C(F)(F)F)cc2)C1CC (centres unmarked) [Compound 26, 1,1′-(Butane-1,4-diyl)bis(5-ethyl-3-hydroxy-4-(4-(trifluoromethyl)phenyl)-1,5-dihydro-2H-pyrrol-2-one)]",,> 128 µg/mL,> 128 µg/mL,> 128 µg/mL,
"CCC1C(c2ccc(C(F)(F)F)cc2)=C(O)C(=O)N1CCCCCCN1C(=O)C(O)=C(c2ccc(C(F)(F)F)cc2)C1CC (centres unmarked) [Compound 27, 1,1′-(Hexane-1,6-diyl)bis(5-ethyl-3-hydroxy-4-(4-(trifluoromethyl)phenyl)-1,5-dihydro-2H-pyrrol-2-one)]",,> 128 µg/mL,> 128 µg/mL,> 128 µg/mL,
"CCC1C(c2ccc(C(F)(F)F)cc2)=C(O)C(=O)N1C1CCC(N2C(=O)C(O)=C(c3ccc(C(F)(F)F)cc3)C2CC)CC1 (centres unmarked) [Compound 28, 1,1′-((1r,4r)-Cyclohexane-1,4-diyl)bis(5-ethyl-3-hydroxy-4-(4-(trifluoromethyl)phenyl)-1,5-dihydro-2H-pyrrol-2-one)]",,32 µg/mL,8 µg/mL,32 µg/mL,
"CCC1C(c2ccc(C(F)(F)F)cc2)=C(O)C(=O)N1CCOCCN1C(=O)C(O)=C(c2ccc(C(F)(F)F)cc2)C1CC (centres unmarked) [Compound 30, 1,1′-(Oxybis(ethane-2,1-diyl))bis(5-ethyl-3-hydroxy-4-(4-(trifluoromethyl)phenyl)-1,5-dihydro-2H-pyrrol-2-one)]",,> 128 µg/mL,> 128 µg/mL,> 128 µg/mL,
"CCC1C(c2ccc(C(F)(F)F)cc2)=C(O)C(=O)N1CCOCCOCCOCCN1C(=O)C(O)=C(c2ccc(C(F)(F)F)cc2)C1CC (centres unmarked) [Compound 31, 1,1′-(((Oxybis(ethane-2,1-diyl))bis(oxy))bis(ethane-2,1-diyl))bis(5-ethyl-3-hydroxy-4-(4-(trifluoromethyl)phenyl)-1,5-dihydro-2H-pyrrol-2-one)]",,> 128 µg/mL,> 128 µg/mL,> 128 µg/mL,

# Results, then the compound that gave them:
"MIC ([1]; antibiotic alone, read-out: MIC value against MSSA ATCC 25923)","MIC [2, 4]","MIC [1, 5]",MIC [3],"MIC [2, 6]",SMILES
,64 µg/mL,8 µg/mL,64 µg/mL,,"CCC1C(c2ccc(C(F)(F)F)cc2)=C(O)C(=O)N1CCCCNCCCN1C(=O)C(O)=C(c2ccc(C(F)(F)F)cc2)C1CC (centres unmarked) [Compound 32, 5-Ethyl-1-(3-((4-(2-ethyl-4-hydroxy-5-oxo-3-(4-(trifluoromethyl)phenyl)-2,5-dihydro-1H-pyrrol-1-yl)butyl)amino)propyl)-3-hydroxy-4-(4-(trifluoromethyl)phenyl)-1,5-dihydro-2H-pyrrol-2-one]"
,4 µg/mL,4 µg/mL,,,"CCC1C(c2ccc(C(F)(F)F)cc2)=C(O)C(=O)N1CCCNCCCCNCCCN1C(=O)C(O)=C(c2ccc(C(F)(F)F)cc2)C1CC (centres unmarked) [Compound 33, 1,1′-((Butane-1,4-diylbis(azanediyl))bis(propane-3,1-diyl))bis(5-ethyl-3-hydroxy-4-(4-(trifluoromethyl)phenyl)-1,5-dihydro-2H-pyrrol-2-one)]"
,,> 128 µg/mL,> 128 µg/mL,> 128 µg/mL,CCC1C(c2ccc(C(F)(F)F)cc2)=C(O)C(=O)N1CCNCCNCCNCCN (centres unmarked) [Compound 34]
,,> 128 µg/mL,> 128 µg/mL,> 128 µg/mL,CCC1C(c2ccc(C(F)(F)F)cc2)=C(O)C(=O)N1CCSCCN (centres unmarked) [Compound 36]
,,> 256 µg/mL,> 256 µg/mL,> 256 µg/mL,"CCC1C(c2ccc(C(F)(F)F)cc2)=C(O)C(=O)N1CCSCCN1C(=O)C(O)=C(c2ccc(C(F)(F)F)cc2)C1CC (centres unmarked) [Compound 37, 1,1′-(thiobis(ethane-2,1-diyl))bis(5-ethyl-3-hydroxy-4-(4-(trifluoromethyl)phenyl)-1,5-dihydro-2H-pyrrol-2-one)]"
,,64 µg/mL,64 µg/mL,64 µg/mL,"CCC1C(c2ccc(C(F)(F)F)cc2)=C(O)C(=O)N1CCN(CCN)CCN (centres unmarked) [Compound 38, 1-(2-(bis(2-aminoethyl)amino)ethyl)-5-ethyl-3-hydroxy-4-(4-(trifluoromethyl)phenyl)-1,5-dihydro-2H-pyrrol-2-one]"
,,64 µg/mL,64 µg/mL,64 µg/mL,"CCC1C(c2ccc(C(F)(F)F)cc2)=C(O)C(=O)N1CCN(CCN)CCN1C(=O)C(O)=C(c2ccc(C(F)(F)F)cc2)C1CC (centres unmarked) [Compound 39, 1,1′-(((2-aminoethyl)azanediyl)bis(ethane-2,1-diyl))bis(5-ethyl-3-hydroxy-4-(4-(trifluoromethyl)phenyl)-1,5-dihydro-2H-pyrrol-2-one)]"
,,,8 µg/mL,8 µg/mL,"O=C1C(O)=C(c2ccc(C(F)(F)F)cc2)C([C@H](O)c2ccccc2)N1c1ccc(Br)cc1 (stereo partly drawn) [Compound 47, 1-(4-Bromophenyl)-3-hydroxy-5-((R)-hydroxy(phenyl)methyl)-4-(4-(trifluoromethyl)phenyl)-1,5-dihydro-2H-pyrrol-2-one]"
